The values that follow come from patent US20260258084A1, “New Peptides as Selective IL-23 Receptor Antagonists” (Sanofi, priority 2022, published 2026).

Starred links: 1 amine or outer side, 2 acyl side, 3 side chain; linkers in the order of their positions; H or OH if unused. Positions of bridges follow the written chain, without caps; N, C: chain ends. Non-standard residues stand in square brackets, D forms with d. Residues, ends and D or L forms follow the SMILES beside them. *: point of attachment. X6 = O=C(CCC(=O)[*:3])N[C@@H](CS[*:2])C(=O)[*:1]; Trp(7-Me) = Cc1cccc2c(C[C@H](N)C(=O)O)c[nH]c12; X1 = O=C(CCCCN[*:3])N[C@@H](CS[*:2])C(=O)[*:1]; αMeLys(Me2) = CN(C)CCCC[C@](C)(N)C(=O)O; 2Nal = N[C@@H](Cc1ccc2ccccc2c1)C(=O)O; NMe5Ava = CN(CCCCC(=O)[*:2])[*:1]; 3Pal = N[C@@H](Cc1cccnc1)C(=O)O; Lys(Me) = CNCCCC[C@H](N)C(=O)O; αMeL = CC(C)C[C@](C)(N)C(=O)O; Suc = O=C(CCC(=O)[*:2])[*:1]; Thp = NC1(C(=O)O)CCOCC1; Me2NCH2CH2 = CN(C)CC*; Aib = CC(C)(N)C(=O)O; Ava = NCCCCC(=O)O; Sar = CNCC(=O)O

The subject of data set [1] is Pancreatin. Put plainly: Protease stability in simulated intestinal fluid (Pancreatin-SIF, FaSSIF). The note with it: 1 μM peptide, 37° C.; for remaining at 1 h, 1 µM: 60 min, read-out: FaSSIF 60 (min), remaining percent of peptide; for remaining at 2 h, 1 µM: 120 min, read-out: FaSSIF 120 (min), remaining percent of peptide; for remaining at 4 h, 1 µM: 240 min, read-out: FaSSIF 240 (min), remaining percent of peptide. It counts as in vitro ADME. The procedure: (§1) Studies were carried out in simulated intestinal fluid (SIF) and simulated gastric fluid (SGF) to evaluate gastric stability of the peptide compounds disclosed herein.
Similarly, the term “Pancreatin-SIF” refers to a solution of simulated intestinal fluid containing pancreatin whereas “SIF-media” refers to a solution of simulated intestinal fluid without pancreatin.
Pancreatin-SIF was prepared by dissolving 1 mg Pancreatin (MP Biomedicals) in 10 mL SIF media concentrate (ProSense).
(§2) Peptides were first dissolved at 1 mM stock concentration in 0.01 HCl (+/−10% of DMSO) and were than diluted further with water to a stock concentration of 20 μM. Final peptide concentration in the incubation was 1 μM.
(§3) To 76 μL of the Pepsin-SGF buffer, 4 μL of the 20 µM peptide stock solution was added and incubated at 37° C. At each timepoint (0, 60, 120 and 240 minutes) the reaction was quenched with addition of 80 μL Ethanol (0.1% HCOOH). The samples were centrifuged for 20 minutes and an aliquot of the supernatant 100 μL were transferred to a LoBind-MTP plate and analyzed by LCMS/MS. The peak area response was calculated at each time point for each test compound. As internal reference, the peak area response of the same test compound at TO was calculated. The percent remaining at each timepoint was calculated based on the peak area response ratio of the test compound at TO. Time 0 was set to 100%, and all later timepoints were calculated relative to time 0.

The target in data set [2] is T1, human interleukin-23 receptor (recombinant human IL-23R-Fc chimera) (Homo sapiens, UniProt Q5VWK5).
T1 construct: Fc (IgG Fc fusion)
Put plainly: Human ELISA IL23/IL23R (assay for specific human IL23R antagonists). It counts as binding. As to conditions: Table 10; read-out: Human ELISA IL23/IL23R IC50. Put shortly: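 Competition format: peptide dilutions compete for IL23R-Fc chimera (0.1 μg/ml final, 60 min, room temperature) binding to immobilized human IL23 coated at […] overnight at 4 °C. Read-out is fluorogenic HRP signal from goat anti-hu-IgG1 detecting captured receptor.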

Data set [3] relates to T2, Pepsin.
T2 construct: purchased Merck Millipore
The data set can be described thus: Protease stability in simulated gastric fluid (Pepsin-SGF, FaSSGF). As to conditions: simulated gastric fluid with pepsin (Pepsin-SGF), 60 min, 1 μM peptide, 37° C., read-out: FaSSGF 60 (min), remaining percent of peptide. It counts as in vitro ADME. The procedure:
as §1
For clarification the term “Pepsin-SGF” refers to a solution of simulated gastric fluid containing pepsin whereas “SGF media” refers to a solution of simulated gastric fluid without pepsin. Pepsin-SGF was prepared by dissolving 320 mg Pepsin (Merck Millipore) in 100 mL SGF media concentrate (ProSense).
as §2
as §3, with “μM” for “µM”

Data set [4] relates to IL-23 induced STAT3 signaling in HEK-Blue™ IL-23 cells. The data set can be described thus: IL-23 induced STAT3 signaling in HEK-Blue IL-23 cells (SEAP reporter). It counts as cell-based. The note with it: human IL23 0.25 ng/ml, read-out: pSTAT3. Put shortly:
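Secreted SEAP, read at OD 620-655 nm after 45 min QUANTI-Blue development, reports STAT3 activation. Beforehand, cells were exposed to peptide dilutions for 60 min at 37 °C and then to 0.25 ng/ml final human IL-23 overnight, at 10,000 cells/well.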

On to `CC(=O)N[C@H]1CCCCNC(=O)[C@@H]2CSSC[C@H](NC(=O)[C@H](CC(C)C)NC(=O)[C@H](Cc3c[nH]c4c(C)cccc34)NC1=O)C(=O)N[C@@H](Cc1ccc(OCCN(C)C)cc1)C(=O)N[C@@H](Cc1ccc3ccccc3c1)C(=O)N[C@@](C)(CC(C)C)C(=O)N[C@H](C(=O)N[C@@H](CC(N)=O)C(=O)N[C@@H](Cc1cccnc1)C(=O)N(C)CC(N)=O)CCCCN(C)C(=O)CCC(=O)N2` [compound 68] (Ac-K[Trp(7-Me)]LCY(Me2NCH2CH2)[2Nal][αMeL][Lys(Me)]N[3Pal][Sar]-NH2; linker 1-4-8 via X6), for which, in data set [1], the fraction remaining at 1 h, 1 µM is 91%; the amount remaining at 2 h, 1 µM is 91%; the share remaining at 4 h, 1 µM was 86%. In addition, in data set [2], the IC50 came out at 1.48 nM. Also, the fraction remaining at 1 h, 1 µM in data set [3] is 39%. The IC50 in data set [4] stood at 2.69 nM.

For the compound `Cc1cccc2c(C[C@@H]3NC(=O)[C@H]([C@@H](C)O)NC(=O)[C@H](CC(N)=O)NC(=O)[C@@H]4CSSC[C@H](NC(=O)[C@H](CCC(N)=O)NC3=O)C(=O)N[C@@H](Cc3ccc(OCCN(C)C)cc3)C(=O)N[C@@H](Cc3ccc5ccccc5c3)C(=O)NC(C)(C)C(=O)N[C@H](C(=O)N[C@@H](CO)C(=O)N[C@@H](Cc3c[nH]cn3)C(N)=O)CCC(=O)NCCCCC(=O)N4)c[nH]c12` [compound 43] ([Ava]CNT[Trp(7-Me)]QCY(Me2NCH2CH2)[2Nal][Aib]ESH-NH2; disulfide 2-7; lactam N-11), in data set [1], the share remaining at 1 h, 1 µM is 83%; the amount remaining at 2 h, 1 µM was 72%; the amount remaining at 4 h, 1 µM is 67%. The IC50 in data set [2] stood at 0.33 nM. In data set [3], the amount remaining at 1 h, 1 µM is 100%. The IC50 in data set [4] stood at 1.31 nM.

On to `CC(=O)NCCCC[C@@H]1NC(=O)[C@H](Cc2c[nH]c3c(C)cccc23)NC(=O)[C@@H](NC(C)=O)CCCCNC(=O)[C@@H]2CSSC[C@H](NC1=O)C(=O)N[C@@H](Cc1ccc(OCCN(C)C)cc1)C(=O)N[C@@H](Cc1ccc3ccccc3c1)C(=O)NC(C)(C)C(=O)N[C@H](C(=O)N[C@@H](CC(N)=O)C(=O)N[C@@H](Cc1cccnc1)C(=O)N(C)CC(N)=O)CCC(=O)NCCCCC(=O)N2` [compound 72] (Ac-K[Trp(7-Me)]K(Ac)CY(Me2NCH2CH2)[2Nal][Aib]EN[3Pal][Sar]-NH2; linker 1-4-8 via X1), for which the results for the fraction remaining at 1 h, 1 µM in data set [1] and in data set [3] were 91% and 92%, respectively. In data set [1], the fraction remaining at 2 h, 1 µM is 90%. The fraction remaining at 4 h, 1 µM in data set [1] was 83%. For the same compound, the figures for the IC50 in data set [2] and in data set [4] were 0.59 nM and 0.12 nM, respectively.

In the case of `CC(C)C[C@]1(C)NC(=O)[C@H](Cc2ccc3ccccc3c2)NC(=O)[C@H](Cc2ccc(OCCN(C)C)cc2)NC(=O)[C@@H]2CSSC[C@H](NC(=O)CCCCN(C)C(=O)CC[C@@H](C(=O)N[C@@H](CC(N)=O)C(=O)N[C@@H](CC(N)=O)C(N)=O)NC1=O)C(=O)N[C@@H](CC(N)=O)C(=O)N[C@@H]([C@@H](C)O)C(=O)N[C@@H](Cc1c[nH]c3ccccc13)C(=O)N[C@@H](CCC(N)=O)C(=O)N2` [compound 41] ([NMe5Ava]CNTWQCY(Me2NCH2CH2)[2Nal][αMeL]ENN-NH2; disulfide 2-7; lactam N-11), the results for the share remaining at 1 h, 1 µM in data set [1] and in data set [3] were 83% and 90%, respectively. Further, in data set [1], the share remaining at 2 h, 1 µM is 71%. For the same compound, in data set [1], the amount remaining at 4 h, 1 µM is 57%. Besides, the IC50 is 0.35 nM in data set [2] and 1.6 nM in data set [4].

As to `Cc1cccc2c(C[C@@H]3NC(=O)[C@H]([C@@H](C)O)NC(=O)[C@H](CC(N)=O)NC(=O)[C@@H]4CSSC[C@H](NC(=O)[C@H](CCC(N)=O)NC3=O)C(=O)N[C@@H](Cc3ccc(OCCN(C)C)cc3)C(=O)N[C@@H](Cc3ccc5ccccc5c3)C(=O)N[C@@](C)(CCCCN(C)C)C(=O)N[C@H](C(=O)N[C@@H](CC(N)=O)C(=O)N[C@@H](Cc3cccnc3)C(=O)N(C)CC(N)=O)CCCCNC(=O)CCC(=O)N4)c[nH]c12` [compound 152] (CNT[Trp(7-Me)]QCY(Me2NCH2CH2)[2Nal][αMeLys(Me2)]KN[3Pal][Sar]-NH2; disulfide 1-6; linker N-10 via Suc), in data set [1], the amount remaining at 1 h, 1 µM is 100%; the share remaining at 2 h, 1 µM is 100%; the amount remaining at 4 h, 1 µM is 98%. For the same compound, the IC50 in data set [2] stood at 0.38 nM. The amount remaining at 1 h, 1 µM in data set [3] is 99%. In addition, the IC50 in data set [4] was determined as 0.04 nM.

As to `CC(=O)NCCCC[C@@H]1NC(=O)[C@H](Cc2c[nH]c3ccccc23)NC(=O)[C@H]([C@@H](C)O)NC(=O)[C@H](CC(N)=O)NC(=O)[C@@H]2CSSC[C@H](NC1=O)C(=O)N[C@@H](Cc1ccc(OCCN(C)C)cc1)C(=O)N[C@@H](Cc1ccc3ccccc3c1)C(=O)N[C@@](C)(CCCCN(C)C)C(=O)N[C@H](C(=O)N[C@@H](CC(N)=O)C(=O)N[C@@H](Cc1cccnc1)C(=O)N(C)CC(N)=O)CCC(=O)NCCCCC(=O)N2` [compound 58] ([Ava]CNTWK(Ac)CY(Me2NCH2CH2)[2Nal][αMeLys(Me2)]EN[3Pal][Sar]-NH2; disulfide 2-7; lactam N-11), in data set [1], the amount remaining at 1 h, 1 µM is 100%; the fraction remaining at 2 h, 1 µM is 98%; the fraction remaining at 4 h, 1 µM was 80%. The IC50 in data set [2] is 0.16 nM. Besides, the fraction remaining at 1 h, 1 µM in data set [3] was 93%. For the same compound, in data set [4], the IC50 turned out to be 0.1 nM.

As for `C[C@@H](O)[C@@H]1NC(=O)[C@H](CC(N)=O)NC(=O)[C@@H]2CSSC[C@H](NC(=O)[C@H](CCC(N)=O)NC(=O)[C@H](Cc3c[nH]c4ccccc34)NC1=O)C(=O)N[C@@H](Cc1ccc(OCCN(C)C)cc1)C(=O)N[C@@H](Cc1ccc3ccccc3c1)C(=O)NC1(CCOCC1)C(=O)N[C@H](C(=O)N[C@@H](CC(N)=O)C(=O)N[C@@H](CC(N)=O)C(N)=O)CCC(=O)NCCCCC(=O)N2` [compound 26] ([Ava]CNTWQCY(Me2NCH2CH2)[2Nal][Thp]ENN-NH2; disulfide 2-7; lactam N-11), in data set [1], the amount remaining at 1 h, 1 µM was 95%; the amount remaining at 2 h, 1 µM was 95%; the amount remaining at 4 h, 1 µM was 94%. In addition, in data set [2], the IC50 is 0.29 nM. Further, in data set [3], the fraction remaining at 1 h, 1 µM was 95%. For the same compound, in data set [4], the IC50 came to 3.37 nM.

Take `CC[C@H](C)[C@H](NC(=O)[C@H](CC(N)=O)NC(=O)[C@H](CC(N)=O)NC(=O)[C@@H]1CCC(=O)NCCCCC(=O)N[C@H]2CSSC[C@H](NC(=O)[C@H](CCC(N)=O)NC(=O)[C@H](Cc3c[nH]c4ccccc34)NC(=O)[C@H]([C@@H](C)O)NC(=O)[C@H](CC(N)=O)NC2=O)C(=O)N[C@@H](Cc2ccc(OCCN(C)C)cc2)C(=O)N[C@@H](Cc2ccc3ccccc3c2)C(=O)NC(C)(C)C(=O)N1)C(N)=O` [compound 57] ([Ava]CNTWQCY(Me2NCH2CH2)[2Nal][Aib]ENNI-NH2; disulfide 2-7; lactam N-11): in data set [1], the amount remaining at 1 h, 1 µM was 95%; the share remaining at 2 h, 1 µM was 80%; the fraction remaining at 4 h, 1 µM was 52%. Also, the IC50 in data set [2] was determined as 0.23 nM. Also, in data set [3], the fraction remaining at 1 h, 1 µM is 61%. In addition, the IC50 in data set [4] was found to be 5.5 nM.
